Laboratory results taken from publication PMC11964933, “Site-specific activation of the proton pump inhibitor rabeprazole by tetrathiolate zinc centres” (Nature Chemistry, 2025).
Positions count from the first letter of the chain named.

Columns and labels:
[1] = target: T1, SBP-DENR (SBP-DENR* = C13A/C132A/C154A) (Homo sapiens, UniProt O43583); assay: affinity purification and click Cy5 in-gel labelling; assay type: cell-based; settings: covalent; intact HEK293 MSR cells, 10 µM, 15 min, 37 °C
T1 sequence (O43583 1-198): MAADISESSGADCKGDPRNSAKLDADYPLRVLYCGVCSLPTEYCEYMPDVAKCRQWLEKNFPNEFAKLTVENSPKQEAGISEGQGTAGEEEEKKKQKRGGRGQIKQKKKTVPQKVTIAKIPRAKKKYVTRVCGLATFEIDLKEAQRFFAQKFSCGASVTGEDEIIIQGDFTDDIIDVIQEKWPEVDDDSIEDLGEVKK

[2] = target: T2, His-DENR–MCTS1 complex (recombinant WT DENR; DENR* = C13A/C132A/C154A) (Homo sapiens, UniProt O43583); assay: in-gel Cy5 labelling after click chemistry; assay type: binding; settings: covalent; with NEM; zinc-dependent
T2 construct: His-tagged DENR co-expressed with MCTS1 in Escherichia coli; heterodimeric complex; C4 zinc site C34/C37/C44/C53
T2 sequence (O43583 2-198): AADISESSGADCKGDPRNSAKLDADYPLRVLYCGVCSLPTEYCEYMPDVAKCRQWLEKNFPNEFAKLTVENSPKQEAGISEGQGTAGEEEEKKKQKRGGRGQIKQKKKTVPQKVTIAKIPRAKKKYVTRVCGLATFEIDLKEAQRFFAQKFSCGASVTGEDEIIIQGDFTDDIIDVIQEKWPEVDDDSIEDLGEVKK
T2 sequence (Q9ULC4 1-181 partner): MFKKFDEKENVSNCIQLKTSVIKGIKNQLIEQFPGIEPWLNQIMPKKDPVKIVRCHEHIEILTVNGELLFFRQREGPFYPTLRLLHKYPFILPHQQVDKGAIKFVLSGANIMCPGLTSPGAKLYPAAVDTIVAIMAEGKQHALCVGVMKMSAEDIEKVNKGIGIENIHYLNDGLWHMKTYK

[3] = target: T2, His-DENR–MCTS1 complex (recombinant WT DENR; DENR* = C13A/C132A/C154A); assay: LC-MS/MS adduct mapping; assay type: binding; settings: covalent; fivefold excess, iodoacetamide, 15 min, r.t., pH 7.5; sites C44 and C34
[4] = target: T3, His-DENR–MCTS1 complex (recombinant WT DENR; DENR* = C13A/C132A/C154A) (Homo sapiens, UniProt O43583, C13A/C132A/C154A); assay: differential alkylation LC-MS; intact protein MS; Zn release (PAR); assay type: binding; settings: covalent; 25 µM rabeprazole, fivefold excess, 15 min, r.t., pH 7.5; site C44
T3 construct: His-tagged DENR co-expressed with MCTS1 in Escherichia coli; heterodimeric complex; C4 zinc site C34/C37/C44/C53
T3 sequence (O43583 2-198 C13A/C132A/C154A): T2 sequence (O43583 2-198) with C12A, C131A, C153A
T3 sequence (Q9ULC4 1-181 partner): T2 sequence (Q9ULC4 1-181 partner)

[5] = target: T4, 15N-labelled DENR26–98–MCTS1 complex (Homo sapiens, UniProt O43583); assay: 1H NMR and 1H-15N HSQC; assay type: binding; settings: covalent; fivefold excess, pH 7.5, 298 K
T4 construct: gene DENR; DENR residues 26-98, 15N-labelled, in complex with MCTS1
T4 sequence (O43583 26-98): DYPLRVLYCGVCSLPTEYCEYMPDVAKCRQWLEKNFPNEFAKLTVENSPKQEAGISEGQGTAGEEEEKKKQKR
T4 sequence (Q9ULC4 1-181 partner): T2 sequence (Q9ULC4 1-181 partner)

Cc1c(OCCCN=[N+]=[N-])ccnc1C[S+]([O-])c1nc2ccccc2[nH]1 (centres unmarked) [Rabazi]
affinity purification and click Cy5 in-gel labelling [1]: led to the formation of an SBP-DENR–Rabazi disulfide conjugate | in-gel Cy5 labelling after click chemistry [2]: Rabazi conjugation to recombinant DENR leads to a rather weak and diffuse band

COCCCOc1ccnc(C[S+]([O-])c2nc3ccccc3[nH]2)c1C (centres unmarked) [rabeprazole]
LC-MS/MS adduct mapping [3]: we identified the hydrolysed form of rabeprazole on cysteines C44 | occupancy [4]: ~ 80% | 1H NMR and 1H-15N HSQC [5]: DENR exhibited time-dependent chemical shift perturbations of the amide peaks during incubation with rabeprazole
